According to US20050048508A1, “Trehalose receptor and method for detecting trehalose with the same” (KABUSHIKI KAISHA HAYASHIBARA SEIBUTSU KAGAKU KENKYUJO, priority 2002, published 2005):
Residues, ends and D or L forms follow the SMILES beside them.

Target: T1, T1R3 with G protein α-subunits (α15 and α16/Z chimeric protein) (Mus musculus, UniProt Q925D8, I706N)
T1 construct: expressed in transfected cells; host or cells: 293 cells, RCB 1637 (human embryonic kidney)
T1 sequence (Q925D8 21-858 I706N): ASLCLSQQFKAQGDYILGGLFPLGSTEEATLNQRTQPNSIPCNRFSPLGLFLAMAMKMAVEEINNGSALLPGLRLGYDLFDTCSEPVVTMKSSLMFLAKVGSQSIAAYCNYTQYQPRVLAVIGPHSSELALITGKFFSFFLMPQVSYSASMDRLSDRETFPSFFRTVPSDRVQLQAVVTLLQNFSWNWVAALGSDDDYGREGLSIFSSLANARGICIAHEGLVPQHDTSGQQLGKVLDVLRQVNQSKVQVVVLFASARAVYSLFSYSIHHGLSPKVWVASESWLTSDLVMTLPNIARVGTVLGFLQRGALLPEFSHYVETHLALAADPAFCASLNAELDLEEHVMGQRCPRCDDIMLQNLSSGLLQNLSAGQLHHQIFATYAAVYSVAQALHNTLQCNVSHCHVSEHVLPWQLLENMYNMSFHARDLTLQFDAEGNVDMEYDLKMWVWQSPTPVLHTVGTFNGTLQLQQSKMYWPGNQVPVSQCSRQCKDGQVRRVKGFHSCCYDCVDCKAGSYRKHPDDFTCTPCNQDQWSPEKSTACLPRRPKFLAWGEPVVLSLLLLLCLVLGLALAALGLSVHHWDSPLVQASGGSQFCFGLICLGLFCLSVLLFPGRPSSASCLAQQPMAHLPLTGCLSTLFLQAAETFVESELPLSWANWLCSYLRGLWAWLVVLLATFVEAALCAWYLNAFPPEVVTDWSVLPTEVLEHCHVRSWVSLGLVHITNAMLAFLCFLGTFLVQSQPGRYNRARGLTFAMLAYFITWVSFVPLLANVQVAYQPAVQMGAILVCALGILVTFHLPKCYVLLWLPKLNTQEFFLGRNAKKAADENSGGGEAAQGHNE
Assay: Intracellular calcium ion assay, 293 cells coexpressing G protein α-subunits and T1R3 (trehalose receptor)
Type: cell-based
Conditions: Table 4: sweet taste substances on cells coexpressing G protein α-subunits and T1R3, measured similarly as in Example 4
Protocol: The coexpression vector for the G protein α-subunit α15 and the G protein α16/Z chimeric protein (hereinafter designated as “G protein α-subunits”) obtained in Example 1-3 was gene transferred to 293 cells, RCB 1637, a human embryonic kidney cell line, available from the Riken Bioresource Center, Ibaraki, Japan, by conventional lipofection. The gene transferred cells were suspended in Dulbecco's Modified Eagle's Medium (D-MEM) supplemented with 1 mg/L of “PUROMYCIN”, a trade mane of puromycin commercialized by Edge Biosystems, MD, USA, and 10% (v/v) of fetal calf serum to give a cell density of 2×10^6 cells/ml and cultured in a plastic petri dish for cell culture. After 10 to 14 days of incubation, a puromycin-resistant cell colony was collected and confirmed its production of the G protein α-subunit proteins with an index of their mRNA level by conventional RT-PCR. Thus, a cell line capable of expressing the G protein α-subunit proteins was established. To the cells were gene transferred an expression vector for the sweet taste receptor protein T1R1, T1R2, or T1R3 in Example 2-2; or a coexpression vector for a pair of T1R1 and T1R2, T1R1 and T1R3, or T1R2 and T1R3 by conventional lipofection. The resulting cells were suspended in D-MEM supplemented with 1 mg/L of “PUROMYCIN”, 500 mg/L of “GENETICIN”, and 10% (v/v) of fetal calf serum and cultured in a plastic petri dish for cell culture. After 10 to 14 days of incubation, a cell colony resistant to both of the above drugs was collected and confirmed that the transferred gene had been expressed intracellularly as expected by conventional RT-PCR at a mRNA level. Thus, a cell, which had coexpressed the desired G proteins and sweet taste receptors, was obtained. As a control, a cell, into which an expression vector with no G protein α-subunit protein gene or sweet taste receptor protein gene, was prepared and used.
The captioned reactivity test was conducted according to a conventional intracellular calcium ion assay: 293 Cells prepared in Example 3, capable of coexpressing the G protein α-subunits and the sweet taste receptor(s), were cultured in a plastic petri dish for cell culture until reaching its confluent phase. Thereafter, the cells were detached from the inner surface of the petri dish with a 0.05% (v/v) trypsin solution and a 0.53 mM EDTA solution, suspended in D-MEM supplemented with 10% (v/v) fetal calf serum to give a cell density of 1×10^6 cells/ml, and allowed to intake “FLUO-4. AM”, a reagent for detecting intracellular calcium ion commercialized by Molecular Probes Inc., Ore., USA, by adding to the cell suspension to give a final concentration of 2 μM and incubating the cells at 37 ° C. for 30 to 90 min. The resulting cells were washed with a buffer for detecting calcium ion, which contained 10 mM HEPES (pH 7.4), 130 mM sodium chloride, 5.4 mM potassium chloride, 2 mM calcium chloride, 1 mM magnesium chloride, 5.5 mM D-glucose, 0.1% (v/v) calf serum albumin, and 1 mM sodium pyruvate to remove the reagent remained extracellularly; suspended in a fresh preparation of the same buffer to give a cell density of 2.67 ×10^7 cells/ml; filtered with a membrane with a pore size of 100 μm mesh; and allowed to stand at 25° C. for 30 min. Two milliliters of the resultant cell suspension was injected into a glass cuvette, commercialized by Hitachi, Ltd., Tokyo, Japan, and analyzed on “HITACHI 650-40”, a fluorescence spectrophotometer commercialized by Hitachi, Ltd., Tokyo, Japan. […]

SMILES | Influx of calcium ion
C[C@H](N)C(=O)O [Alanine] | Negative
O=C[C@H](O)[C@@H](O)[C@@H](O)[C@H](O)CO [Galactose] | Negative
NCC(=O)O [L-Glycine] | Negative
OC[C@@H](O)[C@@H](O)CO [Erythritol] | Negative
OC[C@H]1O[C@H](O[C@]2(CCl)O[C@H](CCl)[C@@H](O)[C@@H]2O)[C@H](O)[C@@H](O)[C@H]1Cl [Sucralose] | Negative
OC[C@@H](O)[C@@H](O[C@H]1O[C@H](CO)[C@@H](O)[C@H](O)[C@H]1O)[C@H](O)[C@@H](O)CO [Maltitol] | Negative
COC(=O)[C@H](Cc1ccccc1)NC(=O)[C@@H](N)CC(=O)O [Aspartame] (HELM PEPTIDE1{D.F.[CO[*:1]]}$$$$V2.0) | Negative
O=C(CO)[C@@H](O)[C@H](O)[C@H](O)CO [Fructose] | Negative
